From ChEMBL document CHEMBL1157132, “Hydrolyzable tannins of tamaricaceous plants. III. Hellinoyl- and macrocyclic-type ellagitannins from Tamarix nilotica” (J Nat Prod, 2010)

Legend:
[1] = Cytotoxicity against human HPLF cells after 48 hrs by MTT assay; type: cell-based
HL-60 = experiment: Cytotoxicity against human HL60 cells after 48 hrs by MTT assay; type: functional; details: HL-60, 48 h
HSC-4 = experiment: Cytotoxicity against human HSC4 cells after 48 hrs by MTT assay; type: functional; details: HSC-4, 48 h
[2] = Cytotoxicity against human HGF cells after 48 hrs by MTT assay; type: cell-based
[3] = Cytotoxicity against human HPC cells after 48 hrs by MTT assay; type: cell-based
HSC-3 = experiment: Cytotoxicity against human HSC3 cells after 48 hrs by MTT assay; type: functional; details: HSC-3, 48 h
HSC-2 = experiment: Cytotoxicity against human HSC2 cells after 48 hrs by MTT assay; type: functional; details: HSC-2, 48 h

| SMILES | CC50 at 48 h [1] | CC50 (HL-60) | CC50 (HSC-4) | CC50 at 48 h [2] | CC50 at 48 h [3] | CC50 (HSC-3) | CC50 (HSC-2) |
| --- | --- | --- | --- | --- | --- | --- | --- |
| O=C(O[C@@H]1O[C@@H]2COC(=O)c3cc(O)c(O)c(O)c3-c3c(cc(O)c(O)c3O)C(=O)O[C@H]2[C@H](OC(=O)c2cc(O)c(O)c(O)c2)[C@H]1OC(=O)c1cc(O)c(O)c(O)c1Oc1cc2c(c(O)c1O)Oc1cc(cc(O)c1O)C(=O)O[C@@H]1O[C@@H]3COC(=O)c4cc(O)c(O)c(O)c4-c4c(cc(O)c(O)c4O)C(=O)O[C@H]3[C@H](OC(=O)c3cc(O)c(O)c(O)c3)[C@H]1OC2=O)c1cc(O)c(O)c(O)c1 [HIRTELLIN B] | 293 µM | 8.71 µM | 74 µM | 177 µM | 78.5 µM | 99.3 µM | 91.7 µM |
| O=C(O[C@@H]1O[C@@H]2COC(=O)c3cc(O)c(O)c(O)c3-c3c(cc(O)c(O)c3O)C(=O)O[C@H]2[C@H](OC(=O)c2cc(O)c(O)c(O)c2)[C@H]1OC(=O)c1cc(O)c(O)c(O)c1Oc1cc2c(c(O)c1O)Oc1cc(cc(O)c1O)C(=O)O[C@@H]1O[C@H](CO)[C@@H](O)[C@H](OC(=O)c3cc(O)c(O)c(O)c3)[C@H]1OC2=O)c1cc(O)c(O)c(O)c1 [NILOTININ D8] | 358 µM | 22.9 µM | 54.3 µM | 318 µM | 278 µM | 48.3 µM | 32.3 µM |
| O=C1O[C@@H]2O[C@@H]3COC(=O)c4cc(O)c(O)c(O)c4-c4c(cc(O)c(O)c4O)C(=O)O[C@H]3[C@H](OC(=O)c3cc(O)c(O)c(O)c3)[C@H]2OC(=O)c2cc(Oc3c(C(=O)O)cc(O)c(O)c3O)c(O)c(O)c2Oc2cc1cc(O)c2O [NILOTININ M4] | 361 µM | 30.6 µM | 62 µM | 325 µM | 263 µM | 57 µM | 35 µM |
| O=C(O)c1cc(O)c(O)c(Oc2c(C(=O)O[C@H]3[C@H](OC(=O)c4cc(O)c(O)c(O)c4)O[C@@H]4COC(=O)c5cc(O)c(O)c(O)c5-c5c(cc(O)c(O)c5O)C(=O)O[C@H]4[C@@H]3OC(=O)c3cc(O)c(O)c(O)c3O)cc(O)c(O)c2O)c1 [REMURIN A] | 373 µM | 18.4 µM | 48 µM | 218 µM | 170 µM | 51 µM | 31.3 µM |
| O=C(O)c1cc(O)c(O)c(Oc2c(C(=O)O[C@@H]3[C@@H](OC(=O)c4cc(O)c(O)c(O)c4O)[C@@H]4OC(=O)c5cc(O)c(O)c(O)c5-c5c(cc(O)c(O)c5O)C(=O)OC[C@H]4O[C@H]3O)cc(O)c(O)c2O)c1 [REMURIN B] | 375 µM | 41.7 µM | 60 µM | 337 µM | 255 µM | 63.3 µM | 32.3 µM |
| O=C1O[C@@H]2O[C@@H]3COC(=O)c4cc(O)c(O)c(O)c4-c4c(cc(O)c(O)c4O)C(=O)O[C@H]3[C@H](OC(=O)c3cc(O)c(O)c(O)c3)[C@H]2OC(=O)c2cc(Oc3c(C(=O)O[C@@H]4[C@@H](OC(=O)c5cc(O)c(O)c(O)c5)[C@@H]5OC(=O)c6cc(O)c(O)c(O)c6-c6c(cc(O)c(O)c6O)C(=O)OC[C@H]5O[C@H]4O)cc(O)c(O)c3O)c(O)c(O)c2Oc2cc1cc(O)c2O [TAMARIXININ A] | 353 µM | 30.8 µM | 59.3 µM | 274 µM | 199 µM | 54.3 µM | 29.3 µM |
